EP1203770A1 (priority 1992, dated 1994)
Read-outs that look alike come from different tables or passages of the source.

Biological target: T1, HIV-1 protease (Human immunodeficiency virus type 1 group M subtype B, UniProt P04585)
T1 construct: The protease (or proteinase), consisting of only 99 amino acids, is among the smallest enzymes known
Experiment: In vitro HIV protease inhibitory assay (HIV Protease FITC Assay)
Format: biochemical
Conditions: for inhibition at 0.123 µM / inhibition at 0.37 µM / inhibition at 1.1 µM / inhibition at 3.3 µM / inhibition at 10 µM / inhibition at 30 µM: read-out: HIV-1 Protease % Inhib
Procedure, shortened: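 Percent inhibition was read as fluorescence after avidin-bead capture and filtration separated FITC cleavage product from biotinylated substrate. Enzyme and substrate reacted 1 h, RT, dark, at pH 5.5 (0.1 M sodium acetate, 1.0 M NaCl, 0.05% NP-40).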

Row | SMILES | Ki (read-out: HIV-1 FITC Ki) [nM] | inhibition at 0.123 µM (HIV-1 Dose 0.123 uM) [%] | inhibition at 0.37 µM (HIV-1 Dose 0.370 uM) [%] | inhibition at 1.1 µM (HIV-1 Dose 1.100 uM) [%] | inhibition at 3.3 µM (HIV-1 Dose 3.300 uM) [%] | inhibition at 10 µM (HIV-1 Dose 10.000 uM) [%] | inhibition at 30 µM (HIV-1 Dose 30.000 uM) [%] | other results
1 | COCOCc1ccc(C(C2=C(O)CC(CCc3ccccc3)(CC(C)C)OC2=O)C2CC2)s1 (stereo not drawn) [Example 232, 2H-Pyran-2-one, 3-(α-cyclopropyl-[5-(methoxymethoxy-methyl)-thiophen-2-yl]-methyl)-5,6-dihydro-4-hydroxy-6-(2-methylpropyl)-6-(2-phenylethyl)-] | 76 | – | – | – | – | – | – | HIV-1 Protease % Inhib (HIV-1 Dose 0.123 uM): 10.57%; HIV-1 Protease % Inhib (HIV-1 Dose 0.370 uM): 36.97%; HIV-1 Protease % Inhib (HIV-1 Dose 1.100 uM): 73.74%; HIV-1 Protease % Inhib (HIV-1 Dose 3.300 uM): 93.56%; HIV-1 Protease % Inhib (HIV-1 Dose 10.000 uM): 103.56%; HIV-1 Protease % Inhib (HIV-1 Dose 30.000 uM): 98.87%
2 | C=CC(C1=C(O)CC(CCc2ccccc2)(CC(C)C)OC1=O)c1ccccc1 (centres unmarked) [Example 233, 2H-Pyran-2-one, 5,6-dihydro-4-hydroxy-6-(2-methylpropyl)-6-(2-phenylethyl)-3-(1-phenyl-2-propenyl)-] | 24.8 | < 10 | 28.9 | 64.9 | 83.1 | 93.7 | 59.4 | –
3 | CCC(C1=C(O)CC(CCc2ccccc2)(CC(C)C)OC1=O)c1ccccc1 (centres unmarked) [Example 234, 2H-Pyran-2-one, 5,6-dihydro-4-hydroxy-6-(2-methylpropyl)-6-(2-phenylethyl)-3-(1-phenylpropyl)-] | 39.4 | < 10 | 33.4 | 61.6 | 81.1 | 83 | 71.1 | –
4 | O=C1OC(CCc2ccccc2)(CCc2ccccc2)CC(O)=C1C(c1ccccc1)c1ccccc1 [Example 235, 2H-Pyran-2-one, 5,6-dihydro-3-diphenylmethyl4-hydroxy-6,6-di-(2-phenylethyl)-] | – | < 10 | 13.7 | 33.2 | 61.6 | 73.3 | 80.1 | –
5 | O=C1OC(CCc2ccccc2)(CCc2ccccc2)CC(O)=C1C(C=Cc1ccccc1)c1ccccc1 (centres unmarked) [Example 236, 2H-Pyran-2-one, 5,6-dihydro-4-hydroxy-6,6-di-(2-phenylethyl)-3-(1,3-diphenyl-2-propenyl)-] | – | < 10 | < 10 | 26 | 54.1 | 75.8 | 78.7 | –
6 | O=C1OC(CCc2ccccc2)(CCc2ccccc2)CC(O)=C1C(CCc1ccccc1)c1ccccc1 (centres unmarked) [Example 237, 2H-Pyran-2-one, 5,6-dihydro-4-hydroxy-6,6-di-(2-phenylethyl)-3-(1,3-diphenylpropyl)-] | – | < 10 | 10.2 | 32 | 60.2 | 80.9 | 78.2 | –
7 | CCCC1(CCCc2ccccc2)CC(O)=C(C(C=Cc2ccccc2)c2ccccc2)C(=O)O1 (centres unmarked) [Example 238, 2H-Pyran-2-one, 5,6-dihydro-4-hydroxy-3-(1,3-diphenyl-2-propenyl)-6-(3-phenylpropyl)-6-propyl-] | 163 | < 10 | 20.5 | 52.8 | 75.6 | 81 | 87.1 | –
8 | CCCC1(CCCc2ccccc2)CC(O)=C(C(CCc2ccccc2)c2ccccc2)C(=O)O1 (centres unmarked) [Example 239, 2H-Pyran-2-one, 5,6-dihydro-4-hydroxy-3-(1,3-diphenylpropyl)-6-(3-phenylpropyl)-6-propyl-] | 99 | < 10 | 35.8 | 63.9 | 79.8 | 91 | 85.7 | –
9 | CCCC1(CCc2ccccc2)CC(O)=C(C(c2ccc(COCOC)s2)C2CC2)C(=O)O1 (stereo not drawn) [Example 240, 2H-Pyran-2-one, 3-(α-cyclopropyl-[5-(methoxymethoxy-methyl)-thiophen-2-yl]-methyl)-5,6-dihydro-4-hydroxy-6-(2-phenylethyl)-6-propyl-] | 29.2 | < 10 | 40.6 | 68.7 | 95 | 113 | 104 | –
10 | CCCC1(CCCc2ccccc2)CC(O)=C(C(c2ccc(COCOC)s2)C2CC2)C(=O)O1 (stereo not drawn) [Example 241, 2H-Pyran-2-one, 3-(α-cyclopropyl-[5-(methoxymethoxy-methyl)-thiophen-2-yl]-methyl)-5,6-dihydro-4-hydroxy-6-(3-phenylpropyl)-6-propyl-] | – | < 10 | < 10 | 32.8 | 62.9 | 87.1 | 90.3 | –
11 | CCCC1(CCCc2ccccc2)CC(O)=C(C(c2ccccc2)c2ccccc2)C(=O)O1 (centres unmarked) [Example 242, 2H-Pyran-2-one, 5,6-dihydro-3-diphenylmethyl-4-hydroxy-6-(3-phenylpropyl)-6-propyl-] | 32.3 | < 10 | 19.9 | 53.5 | 80.5 | 90.2 | 93.2 | –
12 | O=c1oc(C(CC2CC2)CC2CCCOC2)cc(O)c1C(c1ccccc1)C1CC1 (stereo not drawn) [Example 243, 3-(α-Cyclopropylbenzyl)-6-[1-cyclopropylmethyl-2-(tetrahydropyran-3-yl)ethyl]-4-hydroxy-2H-pyran-2-one] | 69 | < 10 | 36.2 | 70.5 | 94.7 | 105 | 102 | –
13 | CCS(=O)(=O)Nc1cccc(C(c2c(O)cc(C(CC3CC3)CC3CCCOC3)oc2=O)C2CC2)c1 (centres unmarked) [Example 244] | 15.4 | 20.7 | 57.9 | 81.9 | 90.6 | 103 | 99.4 | –
14 | Cc1ccc(S(=O)(=O)Nc2cccc(C(c3c(O)cc(C(CC4CC4)CC4CCCOC4)oc3=O)C3CC3)c2)cc1 (centres unmarked) [Example 245] | 20.6 | 25.9 | 58 | 83.3 | 90.3 | 96.9 | 94.1 | –
15 | CCC(Cc1ccccc1)c1cc(O)c(C(c2cccc(NS(=O)(=O)c3ccc(C)cc3)c2)C2CC2)c(=O)o1 (centres unmarked) [Example 246] | 21.6 | 24.7 | 60.1 | 79.9 | 92.3 | 92.7 | 93.3 | –
16 | CCC(Cc1ccccc1)c1cc(O)c(C(c2cccc(NS(=O)(=O)CC)c2)C2CC2)c(=O)o1 (centres unmarked) [Example 247] | 30.4 | 14.1 | 47 | 73.1 | 86.7 | 96.1 | 97 | –
17 | CCC(Cc1ccccc1)c1cc(O)c(C(c2cccc(NC(=O)Cc3cccnc3)c2)C2CC2)c(=O)o1 (stereo not drawn) [Example 248, 3-(α-Cyclopropyl-meta-(3-pyridylacetylamino)benzyl)-6-(α-ethylphenethyl)-4-hydroxy-2H-pyran-2-one] | 61.7 | < 10 | 31.6 | 63.7 | 86.5 | 101 | 99.2 | –
18 | CCC(Cc1ccccc1)c1cc(O)c(C(c2cccc(NC(=O)Cc3ccncc3)c2)C2CC2)c(=O)o1 (stereo not drawn) [Example 249, 3-(α-Cyclopropyl-meta-(4-pyridylacetylamino)benzyl)-6-(α-ethylphenethyl)-4-hydroxy-2H-pyran-2-one] | – | – | – | – | – | – | – | Ki: 44.4 nM; inhibition at 0.123 µM: < 10%; inhibition at 0.37 µM: 40%; inhibition at 1.1 µM: 70.3%; inhibition at 3.3 µM: 88.5%; inhibition at 10 µM: 103%; inhibition at 30 µM: 107%
